Here are results for 19 compounds from US7655395B2, “Isolation and use of ryanodine receptors” (E.I. du Pont de Nemours and Company, priority 2002, dated 2010).

Assay [1] relates to native cockroach ryanodine receptors (in embryonic neuronal cells). Briefly: Calcium release assay, calcium imaging of embryonic cockroach neuronal cells (Fluo-4). To be noted: for Calcium Release (P. americana): Table 6, result in words. The assay is classed as cell-based, Periplaneta americana. The source says: Embryonic neuronal cultures of the American cockroach Periplaneta americana were established, with minor modifications, following the method of Beadle and Lees (1988) (in Cell Culture Approaches to Invertebrate Neuroscience, Academic Press, New York, pp 123-127). Briefly, 26-27-day old oothecae were collected, surface-sterilized and cut open along a line one-third of the distance below the dorsal midline. The heads were removed and placed in Schneider's Drosophila medium (Invitrogen Life Technologies™, Carlsbad, Calif.). Using fine forceps 40 brains were individually removed and placed in a small glass vial containing 700 μl of ‘5+4’ medium (‘5+4’ medium contained 5 parts Schneider's Drosophila medium plus 4 parts roach Basal Medium Eagle, with Earle's salts (BME, Sigma™, St. Louis, Mo.). Roach BME (with Earle's salts) contained 5 parts Hepes (1 M), 1 part penicillin/streptomycin and 44 parts BME (with Earle's salts). ‘5+4’ medium was made fresh and sterile filtered (0.2 μm filter) just prior to use). The brains were dissociated by sequential trituration as follows: 1) brains were passed through a standard Pasteur pipette 10 times; 2) the resulting tissue suspension was passed an additional 5 times through a Pasteur pipet with tip flamed to about half of its original diameter; 3) a final 5 passes were performed using a Pasteur pipet with tip flamed to slightly less than half of its original diameter. A repeat pipettor was used to dispense a 5 μl volume of the resulting suspension into the center of each well of a 96-well, glass-bottom plate previously coated with poly-L-lysine (0.2 mg/ml solution). Cells attached to the bottom of the wells during a 50 min incubation at 27-29° C. 150 ul of a 1:1 mixture of Leibovitz's L-15 medium and Yunker's modified Grace's medium was added, and plates were maintained in a humid incubator at 27-29° C. until use. After cells were allowed to attach wells were filled with a 1:1 mixture of Leibovitz's L-15 medium and Yunker's modified Grace's medium (Leibovitz's L-15 and Grace's medium were obtained from Invitrogen Life Technologies™, Carlsbad, Calif. and Yunker's modified Grace's medium was made with Grace's medium modified by addition of 5 mg L-methionine, 10 mg L-alanine, 182 mg MgCl2.6H20, 1 g Albumin Fraction V, 7 ml Fetal bovine serum, 10 ml Chick embryo extract, 2 ml Penicillin/Streptomycin, and 2 mg 20-hydroxyecdysone (prepared in ethanol prior to addition) to a final volume of 100 ml and sterile filtered (0.2 μm filter)). Cells were maintained in a high humidity incubator at 29° C. until testing.
The calcium imaging and acquisition protocols using roach neuronal cells is as follows:
Cells were rinsed in standard physiological saline having the following composition (mM): NaCl 190; CaCl2 9; KCl 3.1; probenicid 1; Tris buffer 10; pH 7.2. Cells were then bathed in standard physiological saline containing the calcium sensitive fluoroprobe Fluo-4 AM (2 μM) and Pluronic F127 (0.002%) for 45 min. Cells were then rinsed in standard physiological saline for at least 15 min prior to testing. Within the hour prior to testing, standard physiological saline was replaced with standard physiological saline containing the organic cation channel blocker pimozide (10 μM), to inhibit influx of external calcium through voltage-gated calcium channels. The 96-well plate was placed on a Prior™ motorized stage mounted onto a Nikon Diaphot microscope and imaged using a 20× Fluor objective (NA 0.75). Individual wells from the 96-well plate were sequentially excited with light at 495 nm, and the emitted fluorescence at 530 nm was detected using a Hamamatsu ORCA ER digital camera with 2 pixel binning (image size 672×512 pixels).
Acquisition control, image processing and image analysis were conducted using Universal Imaging Corporation's MetaMorph™ imaging software (Universal Imaging, West Chester, Pa.). A series of 3 “control” images were acquired for each well. […]

Assay [2] addresses native cockroach ryanodine receptors (roach femoral muscle membranes) (Periplaneta americana, UniProt A0ABQ8T696). Briefly: Radioligand displacement ([3H]-GN analog Cpd 1) on roach femoral muscle membranes. The assay is classed as binding. To be noted: for IC50: displacement of [3H]-Cpd 1, roach muscle membranes, 60 min at 32° C., read-out: Displacement IC50 (nM) P. americana; for Radioligand Displacement (P. americana): Table 6, result in words. The procedure: Binding to Roach Femoral Muscle Membranes:
Assays were carried out in triplicate.
(Loss of bound radioactivity is the signal in a displacement assay; it reports binding, not function.)

For assay [3], the target named is T1, recombinant Drosophila melanogaster ryanodine receptors (expressed in Sf9 cells) (Drosophila melanogaster, UniProt Q24498).
T1 construct: expressed in transfected cells
The assay is classed as cell-based. To be noted: for Calcium Release Threshold (nM) D. melanogaster: receptor expressed in Sf9 cells; for Calcium Release (D. melanogaster): Table 6, result in words, receptor transiently or stably expressed in Sf9 cells. The procedure: The Spodoptera frugiperda cell line Sf9 used for transfection studies, was maintained in Sf-900 II SFM medium (Invitrogen Life Technologies™, Carlsbad, Calif.) in T-75 flasks incubated at 27° C. It is understood that those skilled in the art might choose alternative cell types such as the Spodoptera frugiperda cell line Sf21 or the Drosophila cell line S2. For the purpose of general handling and propagation, cells were suspended through scraping or agitation and a volume of cell suspension was added to each well of a poly-L-lysine coated 96-well, glass-bottom plate so as to provide 70-80% confluence. Cells were maintained in an incubator at 27° C. until testing.
SF900-II media was used to bring the final volume in the dish to 2 ml and the cells were incubated at 27 degrees C. for 21 h. Following the incubation the media was aspirated from the dish and replaced with 1 ml of SF900-II media pre-warmed to 27 degrees C.
The transient transfection was carried out following an InsectSelect BSD System manual (Invitrogen Life Technologies™, Carlsbad, Calif.). […] The transfection was accomplished by adding the transfection solution drop-wise to the dish and incubating 4 h at room temperature with gentle rocking. […]
(§1) Several drops of a suspension of recombinant Spodoptera frugiperda cell line, Sf9, transiently expressing insect ryanodine receptors were placed on a poly-L-lysine-coated coverslip and allowed to attach. Cells were then rinsed in physiological saline having the following composition (mM): NaCl 130; KCl 5.4; MgCl2 1.2; CaCl2 1.0; NaHCO3 4.2; NaH2P04 7.3; Glucose 10; Sucrose 63; MES 20; pH 6.3. Cells were then bathed in physiological saline containing the calcium sensitive fluoroprobe, Fura-2 AM (2 μM), and Pluronic F127 (0.002%) for 30 min. Cells were rinsed in standard physiological saline for at least 15 min prior to testing. Testing was conducted in standard physiological saline, as the cell lines are devoid of functional voltage-gated calcium channels.
Cell-attached coverslips were placed in a sealed chamber with physiological saline continuously perfused across the cells using a peristaltic pump. Test compounds solubilized in physiological saline were applied by switching the perfusate source.
(§2) For studies involving the stable recombinant Spodoptera frugiperda cell line, Sf9, (other cell lines could also be used such as Sf21, S2, etc) expressing an insect ryanodine receptor from Drosophila melanogaster, or Heliothis virescens (alternatively receptors from other species such as Myzus persicae, Peregrinus maidis, Aphis gossypii, etc) were grown in T75 (or other appropriate sized) flasks in supplemented Grace's insect medium. Cells were maintained in an incubator at 22° C. until testing. Cells were suspension-loaded with the calcium sensitive fluoroprobe, Fura-2 AM (1-2 μM) and Pluronic F127 (0.002%) in culture medium for 30 minutes under agitation. Cells were then centrifuged and the pellet resuspended in physiological saline having the following composition (mM): NaCl 130; KCl 5.4; MgCl2 1.2; CaCl2 1.0; NaHCO3 4.2; NaH2P04 7.3; Glucose 10; Sucrose 63; MES 20; pH 6.3 at approximately 150,000-200,000 cells per well (96-well plate). After a 30 minute equilibration period the cell plate was tested using a Molecular Devices' FlexStation™ system with dual wavelength excitation (340 and 380 nm) and fluorescence emission measured at 510 nm. Test and control samples were added using integrated fluidics and the intracellular calcium monitored over a 2 minute period.

Assay [4] relates to control cells without DNA / wild-type Sf9 cells. Briefly: Calcium response in control Sf9 cells (without DNA, lipid only, non-transfected, wild type). The assay is classed as cell-based, Spodoptera frugiperda. To be noted: Compound 16 10 and 100 nM.
Description: as §1
Imaging studies were conducted using a Nikon Diaphot microscope with a 40× oil immersion objective (NA 1.3) Image acquisition and processing was performed using the MetaFluor™ imaging system from Universal Imaging Corporation (West Chester, Pa.) Calcium calibration was carried out using the Grynkiewicz equation with a dissociation constant (Kd) of 145 nM for Fura-2 (Grynkiewicz et al., 1985). Cell-attached coverslips were placed in a sealed chamber with physiological saline continuously perfused across the cells using a peristaltic pump. Test compounds solubilized in physiological saline were applied by switching the perfusate source.
as §2

`Oc1c(Br)cc2[nH]c3cnccc3c2c1Br` [Bromoeudistomin D, reference compound]: in assay [1], the “Calcium Release (P. americana)” value is “Agonist”.

`Cc1cccc(C(=O)NC(C)C)c1NC(=O)c1cc(Br)nn1-c1ncccc1Cl` [Cpd 7]: in assay [1], the “Calcium Release Threshold (nM) P. americana” value is reported as less than 300 nM. Further, the IC50 in assay [2] was less than 300 nM.

For `Cc1cc(Cl)cc(C(=O)NC(C)C)c1NC(=O)c1cc(Cl)nn1-c1ncccc1Cl` [Cpd 16], in assay [1], the “Calcium Release Threshold (nM) P. americana” value was less than 300 nM. Also, the calcium response result in assay [3] (Compound 16 10 and 100 nM, Sf9 transiently expressing D. melanogaster ryanodine receptor, 96 hr post-transfection, FIG. 3) is “calcium responses elicited”. In assay [3], the “Calcium Release Threshold (nM) D. melanogaster” value was less than 300 nM. In assay [2], the IC50 was less than 300 nM. In addition, in assay [4], the “calcium response in control cells without DNA” value was “No significant calcium responses”.

Turning to `Cc1cc(Br)cc(C(=O)NC(C)C)c1NC(=O)c1cc(Br)nn1-c1ncccc1Cl` [Cpd 12], the “Calcium Release Threshold (nM) P. americana” value in assay [1] is reported as less than 300 nM. Moreover, the IC50 in assay [2] was less than 300 nM.

With `CCNC(=O)c1cc(Br)cc(Br)c1NC(=O)c1cc(C(F)(F)F)nn1-c1ncccc1Cl` [Cpd 18], the IC50 in assay [2] was less than 300 nM.

For the compound `Cc1cccc(C(=O)NC(C)C)c1NC(=O)c1cc(Cl)nn1-c1ncccc1Cl` [Cpd 8], in assay [1], the “Calcium Release Threshold (nM) P. americana” value is recorded as less than 300 nM. For the same compound, the IC50 in assay [2] is less than 300 nM.

Regarding `Cc1cc(Br)cc(C(=O)NC(C)C)c1NC(=O)c1cc(C(F)(F)F)nn1-c1ncccc1Cl` [Cpd 9], the “Calcium Release Threshold (nM) P. americana” value in assay [1] was less than 300 nM. Also, the IC50 in assay [2] was less than 300 nM.

Take `N.N.N.N.N.N.N.N.N.N.N.N.N.N.[Cl-].[Cl-].[Cl-].[Cl-].[Cl-].[Cl-].[O-2].[O-2].[Ru+3].[Ru+3].[Ru+4]` [Ruthenium Red, reference compound]: in assay [1], the “Calcium Release (P. americana)” value is given as “Inactive”. The “Calcium Release (D. melanogaster)” value in assay [3] was “Antagonist”. Further, the “Radioligand Displacement (P. americana)” value in assay [2] is “Displacer”.

For the compound `CNC(=O)c1cc(Cl)cc(C)c1NC(=O)c1cc(Cl)nn1-c1ncccc1Cl` [Cpd 17], in assay [1], the “Calcium Release Threshold (nM) P. americana” value is less than 300 nM. In addition, the IC50 in assay [2] is less than 300 nM.

`[3H]c1cc(C)c(NC(=O)c2cc(C(F)(F)F)nn2-c2ccccc2F)c(C(=O)NC(C)C)c1` [Cpd 1, 1-(2-Fluorophenyl)-N-[2-methyl-4-tritio-6-[[(1-methylethyl)amino]carbonyl]phenyl]-3-(trifluoromethyl)-1H-pyrazole-5-carboxamide]: in assay [3], the “Calcium Release Threshold (nM) D. melanogaster” value is listed as less than 300 nM. In addition, the IC50 in assay [2] was less than 300 nM.

For `COc1cccc2c1C(=O)c1c(O)c3c(c(O)c1C2=O)C[C@@](O)(C(=O)CO)C[C@@H]3O[C@H]1C[C@H](N)[C@H](O)[C@H](C)O1.Cl` [Doxorubicin, reference compound], the “Calcium Release (P. americana)” value in assay [1] is recorded as “Inactive”.

As for `Cc1cc(Br)cc(C(=O)NCC(C)C)c1NC(=O)c1cc(C(F)(F)F)nn1-c1ccccc1Cl` [Cpd 3], the IC50 in assay [2] was less than 300 nM.

For the compound Ryanodine [reference compound], the “Calcium Release (P. americana)” value in assay [1] was “Antagonist”. Also, in assay [3], the “Calcium Release (D. melanogaster)” value is given as “Antagonist”. Further, the “Radioligand Displacement (P. americana)” value in assay [2] is “Inactive”.

As to `CNC(=O)c1cccc(C)c1NC(=O)c1cc(C(F)(F)F)nn1-c1ncccc1Cl` [Cpd 6], the “Calcium Release Threshold (nM) P. americana” value in assay [1] is reported as less than 300 nM. In assay [2], the IC50 was less than 300 nM.

As for `Cc1cc(Cl)cc(C(=O)NC(C)C)c1NC(=O)c1cc(C(F)(F)F)nn1-c1ncccc1Cl` [Cpd 10], in assay [1], the “Calcium Release Threshold (nM) P. americana” value is listed as less than 300 nM. In addition, the IC50 in assay [2] is less than 300 nM.

Regarding `CNC(=O)c1cc(Cl)cc(C)c1NC(=O)c1cc(C(F)(F)F)nn1-c1ncccc1Cl` [Cpd 11], in assay [1], the “Calcium Release Threshold (nM) P. americana” value is listed as less than 300 nM. Moreover, the “Calcium Release Threshold (nM) D. melanogaster” value in assay [3] is given as less than 300 nM. For the same compound, the IC50 in assay [2] is less than 300 nM.

Consider `Cc1cc(Cl)cc(C(=O)NC(C)C)c1NC(=O)c1cc(Br)nn1-c1ncccc1Cl` [Cpd 13], for which, in assay [2], the IC50 was less than 300 nM.

For the compound `CNC(=O)c1cc(Br)cc(C)c1NC(=O)c1cc(C(F)(F)F)nn1-c1ncccc1Cl` [Cpd 15], the “Calcium Release Threshold (nM) P. americana” value in assay [1] is given as less than 300 nM. Further, the IC50 in assay [2] is less than 300 nM.

Regarding `Cc1cccc(C(=O)NC(C)C)c1NC(=O)c1cc(C(F)(F)F)nn1-c1ccccc1Cl` [Cpd 2], in assay [1], the “Calcium Release Threshold (nM) P. americana” value is given as less than 300 nM. The “Calcium Release Threshold (nM) D. melanogaster” value in assay [3] is given as less than 300 nM. The IC50 in assay [2] is less than 300 nM.

In general, IC50 refers to the concentration needed to halve the response being measured.
